Test results: patent publication US8637511B2, “Aminopyrimidines useful as kinase inhibitors” (Vertex Pharmaceuticals Incorporated, priority 2005, dated 2014)
Where two headings read alike, the source gives them in different places.

Legend:
[1] = target: T1, Aurora-2 (Aurora A) (Homo sapiens, UniProt O14965); assay: Aurora-2 (Aurora A) inhibition assay, coupled enzyme; type: biochemical; conditions: read-out: Aurora A kinase Ki value
T1 sequence (O14965 1-403): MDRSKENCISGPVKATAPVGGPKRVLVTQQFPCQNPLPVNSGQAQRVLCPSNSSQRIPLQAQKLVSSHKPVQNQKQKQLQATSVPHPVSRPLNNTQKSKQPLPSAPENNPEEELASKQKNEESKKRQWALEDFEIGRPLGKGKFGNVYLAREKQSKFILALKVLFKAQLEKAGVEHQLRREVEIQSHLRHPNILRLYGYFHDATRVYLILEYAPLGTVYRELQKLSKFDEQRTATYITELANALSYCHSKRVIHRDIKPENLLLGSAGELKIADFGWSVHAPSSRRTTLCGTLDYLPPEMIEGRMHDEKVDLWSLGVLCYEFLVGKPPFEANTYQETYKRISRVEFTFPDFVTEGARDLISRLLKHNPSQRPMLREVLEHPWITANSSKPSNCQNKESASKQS
Summary of the method: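 Coupled pyruvate kinase/lactate dehydrogenase assay with NADH in pH 7.5 Hepes containing MgCl2, DTT and NaCl, using 40 nM Aurora-2 at 30 °C. After a 10 min preincubation, enzyme addition started the reaction, and initial rates were taken over 10 min. IC50 and Ki came from non-linear regression.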

[2] = test system: Colo205 cells; assay: Analysis of cell proliferation and viability; type: cell-based; conditions: Homo sapiens, COLO 205, Colo205 cells, read-out: IC50 value
[3] = target: T2, FLT-3 (Homo sapiens, UniProt P36888); assay: FLT-3 inhibition assay, radiometric filter-binding; type: biochemical
T2 sequence (P36888 27-993): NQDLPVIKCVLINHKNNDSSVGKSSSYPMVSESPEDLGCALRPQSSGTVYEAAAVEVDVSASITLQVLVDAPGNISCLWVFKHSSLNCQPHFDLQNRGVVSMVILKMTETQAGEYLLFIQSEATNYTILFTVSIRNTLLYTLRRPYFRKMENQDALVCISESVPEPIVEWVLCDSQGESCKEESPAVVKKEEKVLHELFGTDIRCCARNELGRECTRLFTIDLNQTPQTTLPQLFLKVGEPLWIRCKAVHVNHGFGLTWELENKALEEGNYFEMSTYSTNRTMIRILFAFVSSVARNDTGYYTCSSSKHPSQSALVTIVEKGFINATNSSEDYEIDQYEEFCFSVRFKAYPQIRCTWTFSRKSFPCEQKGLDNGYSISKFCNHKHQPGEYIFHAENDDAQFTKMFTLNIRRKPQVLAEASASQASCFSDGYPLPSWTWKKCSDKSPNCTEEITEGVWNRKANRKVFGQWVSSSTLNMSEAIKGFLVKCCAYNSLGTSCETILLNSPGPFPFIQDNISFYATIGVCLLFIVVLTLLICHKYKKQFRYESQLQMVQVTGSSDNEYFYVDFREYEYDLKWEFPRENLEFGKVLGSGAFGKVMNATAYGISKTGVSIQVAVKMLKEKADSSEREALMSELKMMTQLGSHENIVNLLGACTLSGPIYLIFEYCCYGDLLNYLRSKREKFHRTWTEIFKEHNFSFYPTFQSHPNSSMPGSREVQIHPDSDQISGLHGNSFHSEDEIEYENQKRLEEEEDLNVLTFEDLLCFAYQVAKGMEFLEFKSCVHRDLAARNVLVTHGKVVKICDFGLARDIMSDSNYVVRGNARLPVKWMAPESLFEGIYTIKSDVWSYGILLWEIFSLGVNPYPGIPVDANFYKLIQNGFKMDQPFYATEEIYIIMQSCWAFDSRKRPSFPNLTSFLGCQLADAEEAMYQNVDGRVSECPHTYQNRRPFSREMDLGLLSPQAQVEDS

| SMILES | Ki [1] [nM] | IC50 ([2]; incubated for 72 hours) [nM] | IC50 ([2]; incubated for 96 hours) [nM] | Ki [3] [nM] | Ki ([3]; read-out: FLT-3 Ki value) [nM] |
| --- | --- | --- | --- | --- | --- |
| Cc1cc(Nc2cc(N3CC(C)(O)C3)nc(Sc3ccc(NC(=O)c4ccccc4Cl)cc3)n2)[nH]n1 [Compound 50] | ≤ 1 | ≤ 30 | ≤ 50 | ≤ 50 | – |
| CCC(=O)Nc1ccc(Sc2nc(Nc3cc(C)n[nH]3)cc(N3CC4(C3)OCC4(C)C)n2)cc1 [Compound 92] | ≤ 1 | – | ≤ 50 | – | ≤ 50 |
| Cc1cnc(Nc2cc(N3CC(F)(C4CC4)C3)nc(Oc3ccc(NC(=O)CC(F)(F)F)cc3)n2)s1 [Compound 181] | ≤ 1 | 30 to 200 | – | ≤ 50 | – |
| Cc1cc(Nc2nc(Sc3ccc(NC(=O)CC(F)(F)F)cc3)nc(N3CC(F)(C4CC4)C3)c2F)[nH]n1 [Compound 178] | ≤ 1 | 30 to 200 | – | 150 to 1000 | – |
| Cc1cc(Nc2cc(N3CC(N4CC[C@H](F)C4)C3)nc(Sc3ccc(NC(=O)CC(F)(F)F)cc3)n2)[nH]n1 [Compound 185] | ≤ 1 | ≤ 30 | – | 50 to 150 | – |
| Cc1cc(Nc2cc(N3CC(F)(C4CC4)C3)nc(Sc3ccc(NS(C)(=O)=O)cc3)n2)[nH]n1 [Compound 151] | ≤ 1 | 30 to 200 | – | ≤ 50 | – |
| Cc1cc(Nc2cc(N3CC(O)(C4CC4)C3)nc(Sc3ccc(NC(=O)C4CC4)c(F)c3)n2)[nH]n1 [Compound 109] | ≤ 1 | – | 50 to 1000 | – | ≤ 50 |
| Cc1cc(Nc2cc(N3CC(N4CCOCC4)C3)nc(Sc3ccc4c(c3)CN(CC(F)(F)F)C4=O)n2)[nH]n1 [Compound 173] | ≤ 1 | 30 to 200 | – | ≤ 50 | – |
| Cc1cc(Nc2cc(N3CC(F)(C4CC4)C3)nc(Sc3ccc(NC(=O)CN(C)C)cc3)n2)[nH]n1 [Compound 152] | ≤ 1 | 30 to 200 | – | 150 to 1000 | – |
| COCc1cc(Nc2cc(N3CCC3)nc(Sc3ccc(NC(=O)c4ccccc4Cl)cc3)n2)n[nH]1 [Compound 82] | – | – | – | 150 to 1000 | – |
| Cc1cc(Nc2cc(N3CC(F)(C4CC4)C3)nc(Sc3cnc4ccccc4c3)n2)[nH]n1 [Compound 206] | ≤ 1 | > 200 | – | ≤ 50 | – |
| Cc1cc(Nc2cc(N3CC(O)(C4CC4)C3)nc(Sc3cc(F)c4nc(C)ccc4c3)n2)[nH]n1 [Compound 172] | ≤ 1 | ≤ 30 | – | 50 to 150 | – |
| CCC(=O)Nc1ccc(Sc2nc(Nc3cc(C)n[nH]3)cc(N3CC(C)(N4CCCC4)C3)n2)cc1 [Compound 89] | ≤ 1 | ≤ 30 | ≤ 50 | – | ≤ 50 |
| Cc1cc(Nc2cc(N3CC(N4CCOCC4)C3)nc(Sc3ccc4nc(CC(F)(F)F)n(C)c4c3)n2)[nH]n1 [Compound 177] | ≤ 1 | 30 to 200 | – | 150 to 1000 | – |
| Cc1cc(Nc2cc(N3CCC3)nc(Sc3ccc(NC(=O)c4ccc(-c5ccccc5)cc4Cl)cc3)n2)[nH]n1 [Compound 83] | ≤ 1 | 30 to 200 | – | – | 150 to 1000 |
| CCC(=O)Nc1ccc(Sc2nc(Nc3cc(C)n[nH]3)cc(N3CC(OC)(C(C)(C)C)C3)n2)cc1 [Compound 90] | ≤ 1 | – | ≤ 50 | ≤ 50 | – |
| CCC(=O)Nc1ccc(Sc2nc(Nc3cc(C)n[nH]3)cc(N3CC(N4CCOCC4)C3)n2)cc1 [Compound 68] | ≤ 1 | – | 50 to 1000 | – | 50 to 150 |
| Cc1cc(Nc2cc(N3CC(F)(C4CC4)C3)nc(Sc3ccc(NC(=O)C4(C)CC4)cc3)n2)[nH]n1 [Compound 203] | ≤ 1 | 30 to 200 | – | – | 150 to 1000 |
